Test system: human CD4+ T-cells
Experiment: I-MUNE assay: T-cell proliferation (tritiated thymidine) with dendritic cells and CD4+ T-cells
Format: cell-based
Conditions: approximately 5 Lf/mL

tetanus toxoid
positive control proliferative response: robust positive control responses
